From patent US20070197512A1, “Carboxylic Acid Compounds and Use Thereof” (Japan Tobacco Inc., priority 2006, published 2007)

Tests used:
[1] = target: T1, CYP2C9 (Homo sapiens, UniProt P11712); experiment: CYP inhibitory test using human liver microsome; format: in vitro ADME; details: model substrate diclofenac, 37° C., 10 min, read-out: CYP2C9 inhibition, IC50
T1 construct: Human liver microsome (20 mg protein/mL, 5 μL, Xenotech LLC, purchased from Lenexa Kans.); tissue Xenotech LLC; host or cells: human liver microsomes
T1 sequence (P11712 whole entry): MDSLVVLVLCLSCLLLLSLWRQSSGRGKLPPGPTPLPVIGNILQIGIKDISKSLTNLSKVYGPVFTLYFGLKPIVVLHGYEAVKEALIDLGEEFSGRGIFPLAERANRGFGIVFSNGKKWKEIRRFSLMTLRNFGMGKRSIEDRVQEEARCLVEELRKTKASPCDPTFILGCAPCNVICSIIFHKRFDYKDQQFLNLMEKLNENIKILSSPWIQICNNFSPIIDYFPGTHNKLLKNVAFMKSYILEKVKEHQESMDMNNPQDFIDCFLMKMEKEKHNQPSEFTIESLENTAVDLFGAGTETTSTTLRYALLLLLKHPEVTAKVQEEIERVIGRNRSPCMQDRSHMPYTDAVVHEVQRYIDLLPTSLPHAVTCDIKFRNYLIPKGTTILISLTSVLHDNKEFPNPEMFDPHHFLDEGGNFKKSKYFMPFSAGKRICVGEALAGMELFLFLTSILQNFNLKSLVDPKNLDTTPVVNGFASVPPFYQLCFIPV
Experimental: Experimental Example 2 CYP Inhibitory Test Using Human Liver Microsome
Human liver microsome (20 mg protein/mL, 5 μL, Xenotech LLC, purchased from Lenexa Kans.) was suspended in 100 mM potassium phosphate buffer (70 μL, pH 7.4), mixed with a solution (0.5 μL) of the Example compound dissolved in DMSO and preincubated at 37° C. for 5 min. NADPH producing system coenzyme solution (β-nicotinamide adenine dinucleotide phosphate: 5.2 mM, D-glucose-6-phosphate: 13.2 mM, magnesium chloride: 13.2 mM, glucose-6-phosphate dehydrogenase: 1.8 U/mL) 25 μL, and a model substrate (CYP3A4: midazolam 1 mM, CYP2D6: bufuralol 1 mM, CYP2C9: diclofenac 2 mM) 0.5 μL dissolved in DMSO were added to start the reaction. After incubation at 37° C. for 10 min., acetonitrile (200 μL) containing an internal standard substance (propranolol 1 μM) was added and the mixture was centrifuged (room temperature, 3000 rpm, 20 min). The amount of the metabolite produced from each model substrate in the supernatant was measured by high performance liquid chromatography/mass spectrometry (LC/MS/MS) and each CYP enzyme activity was determined. The concentration showing 50% inhibition (IC50) was calculated relative to the enzyme activity without addition of Example compound (DMSO 0.5 μL added) as 100%.
As a comparative example, the CYP enzyme activity of the compound described in JP-A-3-135917 was examined by determining the IC50 value in the same manner as above.

[2] = target: T2, human URAT1 (Homo sapiens, UniProt Q96S37); experiment: Uric acid transport inhibitory test using human URAT1-expressing cells; format: cell-based; details: human URAT1-expressing HEK293 cells, 14C-uric acid 50 μM, uptake 5 min, room temperature; read-out: hURAT1 IC50
T2 construct: Human URAT1 full length cDNA was subcloned to expression vector pcDNA3.1; expressed in transfected cells; host or cells: HEK293 cells (pcDNA3.1, geneticin-selected)
T2 sequence (Q96S37 1-553): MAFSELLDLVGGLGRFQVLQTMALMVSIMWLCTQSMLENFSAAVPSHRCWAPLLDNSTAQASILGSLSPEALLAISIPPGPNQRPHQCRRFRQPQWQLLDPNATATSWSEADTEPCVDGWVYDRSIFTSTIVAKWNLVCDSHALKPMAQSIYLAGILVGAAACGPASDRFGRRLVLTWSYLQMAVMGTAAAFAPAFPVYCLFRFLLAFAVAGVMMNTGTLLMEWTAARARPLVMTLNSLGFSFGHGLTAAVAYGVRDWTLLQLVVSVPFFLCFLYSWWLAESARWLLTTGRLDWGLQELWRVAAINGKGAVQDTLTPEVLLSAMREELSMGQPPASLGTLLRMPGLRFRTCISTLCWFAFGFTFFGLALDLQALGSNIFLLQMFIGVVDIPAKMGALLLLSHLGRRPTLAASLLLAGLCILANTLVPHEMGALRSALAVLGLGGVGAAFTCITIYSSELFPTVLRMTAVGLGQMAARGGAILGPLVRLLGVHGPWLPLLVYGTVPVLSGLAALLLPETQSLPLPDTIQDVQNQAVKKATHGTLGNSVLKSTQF
Source text: Experimental Example 1 Uric Acid Transport Inhibitory Test Using Human URAT1-Expressing Cells
Human URAT1 full length cDNA was subcloned to expression vector pcDNA3.1 and human URAT1 gene was transfected into human embryonic kidney derived cell line (HEK293 cells) by liposome method using Lipofectamine2000. Simultaneously, HEK293 cells transfected with expression vector pcDNA3.1 alone (hereinafter mock cells) were also produced. HEK293 cells expressing human URAT1 gene or mock cells were selected with geneticin resistance as an index. The functional expression of human URAT1 gene was confirmed by a method similar to the following method, using ^14C-uric acid transport into the cells as an index.
Human URAT1-expressing HEK293 cells or mock cells were cultured in Dulbecco's modified Eagle's MEM medium (high glucose) containing 10% fetal bovine serum, 0.5 mg/mL geneticin sulfate, 100 units/mL penicillin and 100 μg/mL streptomycin under the conditions of 37° C. and 5% CO2 in an incubator. The cells were plated in a 96 well plate (poly-D-Lysine coated) at 1×10^5 cells/well and the following uric acid transport inhibitory test was performed 24 hr later. This test was performed at room temperature.
After the medium was removed by aspiration from each well, the cells were washed once with Hank's Balanced Salt Solution (HBSS) and preincubated with HBSS (100 μL/well) for 5 min. HBSS was aspirated and an assay buffer (wherein NaCl in the above-mentioned HBSS had been substituted with Na-gluconate) containing various concentrations of the Example compound and a radioactive ligand (14C-uric acid; final concentration 50 μM) was added to each well at 50 μL/well and an uptake reaction was carried out for 5 min. After the reaction, the cells were washed twice with ice-cold HBSS (150 μL/well), and Microscinti™ 20 (PerkinElmer) was added at 50 μL/well. The cells were lysed by stirring and the radioactivity of each well was measured by a liquid scintillation counter (TOP COUNT, Packard).
The uric acid transport rate (%) of the Example compound at each concentration was calculated relative to the radioactivity (difference in radioactivity between human URAT1-expressing HEK293 cells and mock cells without addition of Example compound (DMSO addition)) showing URAT1 specific uric acid transport as 100%, and the concentration (IC50) of the Example compound necessary for inhibiting the uric acid transport rate by 50% was determined. In Table 24-Table 27, “+++” means IC50 value of less than 300 nM, “++” means IC50 value of 300 nM to less than 3000 nM, and “+” means IC50 value of not less than 3000 nM.

| SMILES | IC50 [1] [µM] | IC50 [2] [µM] |
| --- | --- | --- |
| CC(C)c1cccc2c1OC(C(C)C)C(=S)N2CC(=O)O (stereo not shown) [Comparative Example, reference compound] | 16 | – |
| CC(C)c1cccc2c1OC(C(C)C)C(=O)N2CC(=O)O (stereo not shown) [Example 9, (2,8-diisopropyl-3-oxo-2,3-dihydrobenzo[1,4]oxazin-4-yl)acetic acid] | 30 | ≥ 3 |
| CC(C)c1cccc2c1OC(C(C)C)C(=O)N2CCC(=O)O (stereo not shown) [Example 14, 3-(2,8-diisopropyl-3-oxo-2,3-dihydrobenzo[1,4]oxazin-4-yl)propionic acid] | > 50 | 0.3 to 3 |
| CC(C)c1cccc2c1OC(C(C)C)C(=S)N2CCC(=O)O (stereo not shown) [Example 16, 3-(2,8-diisopropyl-3-thioxo-2,3-dihydrobenzo[1,4]oxazin-4-yl)propionic acid] | > 50 | 0.3 to 3 |
| Cc1cccc2c1OC(C(C)C)CN2C(=O)/C=C/C(=O)O (stereo not shown) [Example 54, (E)-4-(2-isopropyl-8-methyl-2,3-dihydrobenzo[1,4]oxazin-4-yl)-4-oxo-2-butenoic acid] | > 50 | ≥ 3 |
| Cc1cccc2c1OC(c1ccccc1)CN2C(=O)/C=C/C(=O)O (stereo not shown) [Example 55, (E)-4-(8-methyl-2-phenyl-2,3-dihydrobenzo[1,4]oxazin-4-yl)-4-oxo-2-butenoic acid] | > 50 | ≥ 3 |
| Cc1ccc2c(c1)OC(C(C)C)CN2C(=O)/C=C/C(=O)O (stereo not shown) [Example 56, (E)-4-(2-isopropyl-7-methyl-2,3-dihydrobenzo[1,4]oxazin-4-yl)-4-oxo-2-butenoic acid] | > 50 | ≥ 3 |
| CCC1Oc2c(C)cc(C)cc2N(CCC(=O)O)C1=O (stereo not shown) [Example 87, 3-(2-ethyl-6,8-dimethyl-3-oxo-2,3-dihydrobenzo[1,4]oxazin-4-yl)propionic acid] | – | < 0.3 |
| CC(C)C1Oc2ccc(C(C)(C)C)cc2N(CCC(=O)O)C1=O (stereo not shown) [Example 88, 3-(6-tert-butyl-2-isopropyl-3-oxo-2,3-dihydrobenzo[1,4]oxazin-4-yl)propionic acid] | – | 0.3 to 3 |
| CCCCC1Oc2c(C)cc(C)cc2N(CCC(=O)O)C1=O (stereo not shown) [Example 93, 3-(2-butyl-6,8-dimethyl-3-oxo-2,3-dihydrobenzo[1,4]oxazin-4-yl)propionic acid] | – | 0.3 to 3 |
| CC(C)C1Oc2ccc(C(F)(F)F)cc2N(CCC(=O)O)C1=O (stereo not shown) [Example 97, 3-(2-isopropyl-3-oxo-6-trifluoromethyl-2,3-dihydrobenzo[1,4]oxazin-4-yl)propionic acid] | – | 0.3 to 3 |

The remaining lines, values ahead:

| IC50 [1] [µM] | IC50 [2] [µM] | SMILES |
| --- | --- | --- |
| > 50 | 0.3 to 3 | CC(C)c1cccc2c1OC(C(C)C)CN2C(=O)/C=C/C(=O)O (stereo not shown) [Example 36, (E)-4-(2,8-diisopropyl-2,3-dihydrobenzo[1,4]oxazin-4-yl)-4-oxo-2-butenoic acid] |
| > 50 | 0.3 to 3 | CC(C)c1cccc2c1OC(C(C)C)CN2C(=O)/C=C\C(=O)O (stereo not shown) [Example 37, (Z)-4-(2,8-diisopropyl-2,3-dihydrobenzo[1,4]oxazin-4-yl)-4-oxo-2-butenoic acid] |
| > 50 | < 0.3 | CC(C)c1cccc2c1OC(c1ccccc1)C(=O)N2CCC(=O)O (stereo not shown) [Example 38, 3-(8-isopropyl-3-oxo-2-phenyl-2,3-dihydrobenzo[1,4]oxazin-4-yl)propionic acid] |
| > 50 | 0.3 to 3 | Cc1ccc2c(c1)N(C(=O)/C=C/C(=O)O)CC(C(C)C)O2 (stereo not shown) [Example 64, (E)-4-(2-isopropyl-6-methyl-2,3-dihydrobenzo[1,4]oxazin-4-yl)-4-oxo-2-butenoic acid] |
| > 50 | ≥ 3 | Cc1ccc2c(c1)N(C(=O)/C=C/C(=O)O)CC(c1ccccc1)O2 (stereo not shown) [Example 65, (E)-4-(6-methyl-2-phenyl-2,3-dihydrobenzo[1,4]oxazin-4-yl)-4-oxo-2-butenoic acid] |
| – | ≥ 3 | Cc1cc(C)c2c(c1)N(CCC(=O)O)C(=O)C(C)(C)O2 [Example 89, 3-(2,2,6,8-tetramethyl-3-oxo-2,3-dihydrobenzo[1,4]oxazin-4-yl)propionic acid] |
| – | < 0.3 | Cc1cc(C)c2c(c1)N(CCC(=O)O)C(=O)C(CC(C)C)O2 (stereo not shown) [Example 90, 3-(2-isobutyl-6,8-dimethyl-3-oxo-2,3-dihydrobenzo[1,4]oxazin-4-yl)propionic acid] |
| – | ≥ 3 | Cc1cc(C)c2c(c1)N(CCC(=O)O)C(=O)C(Cc1ccccc1)O2 (stereo not shown) [Example 92, 3-(2-benzyl-6,8-dimethyl-3-oxo-2,3-dihydrobenzo[1,4]oxazin-4-yl)propionic acid] |
| – | ≥ 3 | CC(C)C1Oc2cc([N+](=O)[O-])ccc2N(CCC(=O)O)C1=O (stereo not shown) [Example 95, 3-(2-isopropyl-7-nitro-3-oxo-2,3-dihydrobenzo[1,4]oxazin-4-yl)propionic acid] |
| – | 0.3 to 3 | CC(C)C1Oc2ccc([N+](=O)[O-])cc2N(CCC(=O)O)C1=O (stereo not shown) [Example 96, 3-(2-isopropyl-6-nitro-3-oxo-2,3-dihydrobenzo[1,4]oxazin-4-yl)propionic acid] |
| – | < 0.3 | Cc1cc(Cl)c2c(c1)N(CCC(=O)O)C(=O)C(C(C)C)O2 (stereo not shown) [Example 98, 3-(8-chloro-2-isopropyl-6-methyl-3-oxo-2,3-dihydrobenzo[1,4]oxazin-4-yl)propionic acid] |
| – | ≥ 3 | CC(C)C1Oc2c(ccc3ccccc23)N(CCC(=O)O)C1=O (stereo not shown) [Example 99, 3-(2-isopropyl-3-oxo-2,3-dihydronaphtho[1,2-b][1,4]oxazin-4-yl)propionic acid] |
| – | < 0.3 | CC(C)C1Oc2c(Cl)cccc2N(CCC(=O)O)C1=O (stereo not shown) [Example 100, 3-(8-chloro-2-isopropyl-3-oxo-2,3-dihydrobenzo[1,4]oxazin-4-yl)propionic acid] |
| – | 0.3 to 3 | CC(C)C1Oc2c(cc(C(F)(F)F)cc2C(F)(F)F)N(CCC(=O)O)C1=O (stereo not shown) [Example 103, 3-[2-isopropyl-3-oxo-6,8-bis(trifluoromethyl)-2,3-dihydrobenzo[1,4]oxazin-4-yl]propionic acid] |
| – | < 0.3 | COc1cc(C)c2c(c1)N(CCC(=O)O)C(=O)C(C(C)C)O2 (stereo not shown) [Example 104, 3-(2-isopropyl-6-methoxy-8-methyl-3-oxo-2,3-dihydrobenzo[1,4]oxazin-4-yl)propionic acid] |
